Experimental data as given in US20130096070A1, “PEPTIDE TARGETING OF INNER EAR CELLS” (priority 2009, published 2013).
No end group written: not given here.

Assays:
Macular Organs = assay: Immunohistochemistry identification of phage binding regions in mouse inner ear (Macular Organs); type: in vivo; details: phage 1×10^9 pfu injected into round window of neomycin-treated mice, anti-M13 immunostaining 1 hour after inoculation
Experimental: (§1) Candidate 7-mer peptide epitopes were selected from the BLAST queried sequences. Colonies were amplified in 20 ml LB media and recovered as previously described. Phage (1×10^9 pfu) were injected into the round window of mice previously treated with 1 μl 0.01 M neomycin injected into the posterior channel 48 hours prior to phage innoculation. Mice were sacrificed by intracardiac perfusion with 4% PBS buffered paraformaldehyde 1 hour after phage inoculation. The temporal bones were isolated and decalcified in Calex (Fisher Scientific, Pittsburgh, Pa.) for 24 hours. The temporal bones were embedded in paraffin and sectioned. Primary antibody directed against the M13 protein (rabbit anti-M13) in 1/100 concentration was added to tissue samples and allowed to incubate for 12 hrs at 4° C. The samples were washed in PBS and incubated with 1/50 concentration fluorescent secondary antibody (goat anti-rabbit, FITC) for 12 hrs at 4° C. After washing, tissue sections were visualized and photographed via fluorescent microscopy.
To determine the potential for identified peptide sequences to bind in vitro be purified individual batches of phage and injected them into the perilymph via the round window. The animals were allowed to recover and were then fixed via perfusion. […]

[1] = tested on: mouse saccule and utricle cultures; assay: Phage display panning of mouse saccule and utricle cultures, sequencing of colonies; type: binding; details: colonies with this sequence among one hundred colonies sequenced after four rounds of panning
Experimental: C57B1/6 Mice were purchased from Jackson Laboratory (Bar Harbour, Me.). At 8 weeks of age the mice were sacrificed and saccule and utricles were isolated under direct visualization. The cells were cultured in 100 μl DMEM/0.001 M neomycin for 48 hours as is standard. All animal protocols were approved by the University of Kansas animal research advisory committee.
A phage library (New England Biolabs, Beverly, Mass.) displaying random 7-mer peptides attached to the NH2-terminus of the pIII protein of the filamentous M13 bacteriophage was used for panning with mouse inner ear cells. In round 1 of panning, 2×10^11 plaque-forming units of the phage library in 200 μl of 1×PBS buffer were added to the inner ear cells and were incubated for 4 h at 4° C. with shaking. The cells were washed 10× with Tris-buffered saline/0.1% Tween under direct visualization and the remaining bound phage were eluted for 10 min with 100 μl of 0.2 M glycine-HCl, pH 2.2, and neutralized with 15 μl of 1 M Tris-HCl, pH 9. A 10 μl aliquot was used for tittering and the remaining eluate was used to infect early log phase ER2738 host bacteria in 20 ml LB media and amplified for 4.5 h at 37° C. with shaking. Bacteria were removed by pellet centrifugation 2×10 min at 10,000 g. The supernantant was added to ⅙ quantity 20% (w/v) polyethylene glycol-8000, 2.5 M NaCl. After overnight incubation at 4° C., the phage was pelleted by centrifugation at 15 min at 10,000 g, and resuspended in 200 μl TBS. Amplified phage product was tittered on X-gal/IPTG plates. A 10 μl aliquot from the phage pool was used to titer phage pfu/μl before and after phage amplification in E. coli. In subsequent rounds 2×10^11 plaque-forming units of the amplified phage pool from the previous round were added to mouse inner ear cells and panned was performed as previously described. All panning experiments were performed in duplicate.
After 4 rounds of panning, isolated colonies were streak plated on X-gal/IPTG plates. Individual colonies were used to infect early log phase ER2738 host bacteria in 4 ml LB media and amplified for 4.5 h at 37° C. The bacteria was pelleted by centrifugation and phage recovered from the supernatant using QIAprep Spin M13 kit (Qiagen, Valencia, Calif.) and resuspended in 50 μl molecular grade water. ssDNA quantity was determined by absorption spectrophotometry. The 7-mer peptide DNA coding regions were sequenced using a −96 gIII sequencing primer (5′-CCCTCATAGTTAGCGTAACG-3′). These sequences were translated and queried on the BLAST protein database (NCBI).
One hundred colonies were sequenced (Table 1). There were 23 colonies which translated to the peptide sequence t-v-p-q-l-t-t, which was homologous to the protein laminin. Eleven colonies which translated to the peptide sequence s-t-t-k-l-a-l, which was homologous to a sodium/hydrogen exchanger protein. Eight colonies which translated to the peptide sequence m-e-g-y-i-h-r, which was homologous to the protein cathepsin L. Two colonies each that translated to the peptide sequences h-a-i-y-p-r-h, h-s-r-l-l-d-q, i-q-s-p-h-f-f and y-a-a-h-r-s-h, which were homologous to the proteins itchy 3, discs large homolog, protocadherin and myelin transcription factor 1, respectively. The remaining colony sequences occurred only once, however within these sequences, several translated to peptides that had homology to the same protein. For example, a-h-p-h-h-s-m and h-p-h-h-r-i-f both contained the peptide sequence h-p-h-h with homology to mitogen activated protein kinase 8.

Organ of Corti = assay: Immunohistochemistry identification of phage binding regions in mouse inner ear (Organ of Corti); type: in vivo; details: phage 1×10^9 pfu injected into round window of neomycin-treated mice, anti-M13 immunostaining 1 hour after inoculation
Experimental: as §1
To determine the potential for identified peptide sequences to bind […] be purified individual batches of phage and injected them into the perilymph via the round window. The animals were allowed to recover and were then fixed via perfusion. Sections of the inner ear were immunostained for the presence phage to determine if the phage had been able to localize to supporting cells in vivo. […] The most common pattern of distribution that was seen was binding to the basement membrane.

[2] = mouse, in vivo
From the text: As a screening test for balance function, mice were swim tested by dropping them from a fixed height into an opaque pool of water. […] Animals with impaired vestibular function are known to have to prolonged swim times. Mice were swim tested two months after aminoglycoside ablation followed by no treatment or treatment with Ad math1.11D.

vestibular hair cells = assay: Vestibular hair cell counts after intracochlear neomycin and adenovector atoh1 delivery; details: aminoglycoside (neomycin 10^-3 M, 2 μl into inner ear) only, n=5; untreated controls 21.8+2
Experimental: Characterization of atoh1/math1 effects were as follows. Unilateral vestibular damage was induced by injecting 2 μl of neomycin (10^−3 M) in to the inner ear of mice. After inducing unilateral vestibular dysfunction mice received an intracochlear injection of an advanced generation adenovector carrying atoh1 driven by a human CMV promoter (Admath1.11D) via the round window membrane into the scala tympani. […] After one month recovery, animals were sacrificed and processed for histology. […] Cells were identified by position of the nucleus and every fifth section was counted and expressed as cell number per 100 μm length of neuroepithelium.

[3] = tested on: myosin VII positive hair cells; details: mouse, in vivo
Experimental: Briefly, mice were treated with an injection of neomycin 10^−3 M into the scala tympani. After 5 days animals were re-anesthetized and 1 μl of Ad.math1.11d (108 pu) were delivered via a fenestration in the posterior semicircular canal. After 4 weeks, animals were sacrificed and then processed for myosin VII immunohistochemistry.

Row | Compound | # of Common Sequences [1] | Phage binding site, Organ of Corti (Organ of Corti) | also measured
1 | ProThrProMeThrLeuTyr | – | – | Phage binding site, Macular Organs (Macular Organs): No binding
2 | STTKLAL [phage pIII NH2 terminal 7 amino acid peptide] | 11 | No binding | –
3 | megyihr: phage pIII NH2 terminal 7 amino acid peptide (MEGYIHR) | 8 | – | –
4 | tvpqltt: phage pIII NH2 terminal 7 amino acid peptide (TVPQLTT) | 23 | – | –
5 | HisAlaIleTyrProArgHis (HAIYPRH; printed: HisAlaIleTyrProArgHis) [phage pIII NH2 terminal 7 amino acid peptide] | 2 | – | –
6 | MPIPRPP [phage pIII NH2 terminal 7 amino acid peptide] | 1 | – | –
7 | ALQYHNL [phage pIII NH2 terminal 7 amino acid peptide] | 1 | No binding | –
8 | HPHHRIF [phage pIII NH2 terminal 7 amino acid peptide] | 1 | No binding | –
9 | SEGRLYK [phage pIII NH2 terminal 7 amino acid peptide] | 1 | No binding | –
10 | PPRPIPM | – | No binding | –
11 | ahphhsm: phage pIII NH2 terminal 7 amino acid peptide (AHPHHSM) | 1 | – | –
12 | hsrlldq: phage pIII NH2 terminal 7 amino acid peptide (HSRLLDQ) | 2 | – | –
13 | NC[C@@H]1O[C@H](O[C@H]2[C@@H](O)[C@H](O[C@@H]3[C@@H](O)[C@H](N)C[C@H](N)[C@H]3O[C@H]3O[C@H](CN)[C@@H](O)[C@H](O)[C@H]3N)O[C@@H]2CO)[C@H](N)[C@@H](O)[C@@H]1O [aminoglycoside, neomycin] | – | – | swim time (time to initiate purposeful swimming) [2]: 22+4.2 seconds; average hair cell counts, serially sectioned saccules (vestibular hair cells): 2.2+2 /100 μm; myosin VII positive cells in macular organs [3]: only occasional myosin VII positive cells
14 | THQARSV [phage pIII NH2 terminal 7 amino acid peptide] | 1 | No binding | –
15 | yaahrsh: phage pIII NH2 terminal 7 amino acid peptide (YAAHRSH) | 2 | – | –
16 | iqsphff: phage pIII NH2 terminal 7 amino acid peptide (IQSPHFF) | 2 | – | –
17 | SNQLLMT [phage pIII NH2 terminal 7 amino acid peptide] | 1 | No binding | –
18 | getrapl | 1 | – | –
